Assay results published in article PMC12010006, “Subnanomolar MAS-related G protein-coupled receptor-X2/B2 antagonists with efficacy in human mast cells and disease models” (Signal Transduction and Targeted Therapy, 2025).
Where two headings read alike, the source gives them in different places.

Key:
Format in all cases: cell-based
MRGPRX1 = target: T1, MRGPRX1 (Homo sapiens, UniProt Q96LB2); experiment: β-arrestin assay, CHO cells expressing MRGPRX1 (subtype selectivity); conditions: 10 µM, versus BAM-22P (8.5 µM)
T1 construct: host or cells: CHO-K1 beta-arrestin-2 (EA) cells
Method: (§1) Fig. 1 Characterization of MRGPRX2 inhibitor 1. a Chemical structure and molecular weight (MW) of 1. b Concentration-response curve of 1 determined in β-arrestin recruitment assays. CHO cells that recombinantly express MRGPRX2 were employed versus the agonist CST-14 (at its EC80 value of 1.0 µM). […] Data are means ± SEM of 3 biological replicates, performed in duplicates. c MRGPRX subtype selectivity of 1 (10 µM) determined in β-arrestin assays using CHO cells that recombinantly express the respective MRGPRX subtype. MRGPRX1 was activated by BAM-22P (8.5 µM),[19] MRGPRX2 was activated by CST-14 (1 µM), MRGPRX3 was activated by PSB-20294 (1 µM), and MRGPRX4 by PSB-18061 (2.6 µM).[44] […] The effect of each MRGPRX agonist was assessed in the absence and in the presence of 1; results were normalized to the maximal agonist effect. […] Statistical significance was determined by one-way ANOVA (Tukey’s multiple comparisons) test (ns P > 0.05 and ****P < 0.0001) TEXT PRINTED IN THE PICTURE: (a) 1 Hit compound: MW: 241.29 g/mol
(§2) Fig. 3 Biological characterization of PSB-172656. a Selectivity of PSB-172656 (100 nM) for MRGPRX2 over MRGPRX1, MRGPRX3, and MRGPRX4 measured in β-arrestin assays utilizing β-arrestin-CHO cells with recombinant expression of the respective receptor. […] Statistical significance was determined by one-way ANOVA (Tukey’s multiple comparison) test (ns P > 0.05). […]

MRGPRX3 = target: T2, MRGPRX3 (Homo sapiens, UniProt Q96LB0); experiment: β-arrestin assay, CHO cells expressing MRGPRX3 (subtype selectivity); conditions: 10 µM, versus PSB-20294
T2 construct: inferred from the enzyme-complementation principle of the assay; expressed in transfected cells; host or cells: CHO-K1 beta-arrestin-2 (EA) cells
Method: as §1, §2

MRGPRX4 = target: T3, MRGPRX4 (Homo sapiens, UniProt Q96LA9); experiment: β-arrestin assay, CHO cells expressing MRGPRX4 (subtype selectivity); conditions: 10 µM, versus PSB-18061 (2.6 µM)
T3 construct: host or cells: CHO-K1 beta-arrestin-2 (EA) cells
Method: as §1, §2

MRGPRX2 = target: T4, MRGPRX2 (Homo sapiens, UniProt Q96LB1); experiment: β-arrestin recruitment assay (antagonist mode), β-arrestin-CHO cells recombinantly expressing MRGPRX2; design: expressed in transfected cells
T4 sequence (Q96LB1 1-330): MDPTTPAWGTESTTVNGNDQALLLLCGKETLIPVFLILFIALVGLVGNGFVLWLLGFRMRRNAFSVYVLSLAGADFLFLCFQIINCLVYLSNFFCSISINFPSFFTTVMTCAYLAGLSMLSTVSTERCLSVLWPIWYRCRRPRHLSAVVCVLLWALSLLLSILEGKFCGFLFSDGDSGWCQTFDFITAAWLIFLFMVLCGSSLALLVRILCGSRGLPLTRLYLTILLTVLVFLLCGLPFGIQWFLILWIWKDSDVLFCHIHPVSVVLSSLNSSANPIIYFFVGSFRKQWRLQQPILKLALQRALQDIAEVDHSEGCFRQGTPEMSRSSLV

[1] = versus CST-14 (EC80 1,000 nM, EC50 483 nM), Cheng-Prusoff, read-out: β-Arrestin assay Ki ± SEM

T1 sequence (Q96LB2 whole entry): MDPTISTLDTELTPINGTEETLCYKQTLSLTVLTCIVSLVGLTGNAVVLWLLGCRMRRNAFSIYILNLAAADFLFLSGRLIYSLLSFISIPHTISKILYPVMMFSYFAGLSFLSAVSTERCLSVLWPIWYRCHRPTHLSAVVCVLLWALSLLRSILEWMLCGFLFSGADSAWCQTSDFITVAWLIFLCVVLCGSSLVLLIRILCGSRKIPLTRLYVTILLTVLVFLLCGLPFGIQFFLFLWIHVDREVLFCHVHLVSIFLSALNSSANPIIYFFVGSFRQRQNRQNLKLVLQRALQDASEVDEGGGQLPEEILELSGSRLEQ
T2 sequence (Q96LB0 whole entry): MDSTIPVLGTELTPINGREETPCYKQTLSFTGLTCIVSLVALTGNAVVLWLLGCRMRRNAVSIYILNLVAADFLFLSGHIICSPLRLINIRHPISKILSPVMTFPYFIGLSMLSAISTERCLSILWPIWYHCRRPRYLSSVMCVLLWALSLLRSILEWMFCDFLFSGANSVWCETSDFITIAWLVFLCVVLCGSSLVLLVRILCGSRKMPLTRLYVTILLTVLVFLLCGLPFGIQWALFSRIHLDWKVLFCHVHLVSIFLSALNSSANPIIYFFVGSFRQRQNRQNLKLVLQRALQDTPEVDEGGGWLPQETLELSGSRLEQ
T3 sequence (Q96LA9 whole entry): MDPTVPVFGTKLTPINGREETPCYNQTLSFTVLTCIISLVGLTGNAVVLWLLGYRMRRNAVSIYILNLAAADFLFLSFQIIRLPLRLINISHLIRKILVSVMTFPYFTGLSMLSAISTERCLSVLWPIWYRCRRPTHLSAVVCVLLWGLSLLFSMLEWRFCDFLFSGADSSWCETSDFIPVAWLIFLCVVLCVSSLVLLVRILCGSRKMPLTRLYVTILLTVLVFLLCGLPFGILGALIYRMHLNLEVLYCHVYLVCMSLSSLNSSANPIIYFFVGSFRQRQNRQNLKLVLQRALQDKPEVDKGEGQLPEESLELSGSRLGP

CCc1c(C(C)C)[nH]c2nc3cc(F)c(F)cc3n2c1=O [Compound 24, 3-ethyl-7,8-difluoro-2-isopropylbenzo[4,5]imidazo [1,2-a] pyrimidin-4(1H)-one]
inhibition of MRGPRX1 activation (MRGPRX1): not able to block
inhibition of MRGPRX3 activation (MRGPRX3): not able to block
inhibition of MRGPRX4 activation (MRGPRX4): not able to block
blockade of MRGPRX2 activation (MRGPRX2; 10 µM, versus CST-14 (1 µM)): completely blocked
difference of Ki versus other agonists from the Ki value versus CST-14 (MRGPRX2; all investigated agonists): < 2 fold
Schild plot slope (MRGPRX2; versus (R)-ZINC-3573): 0.891
IC50 (MRGPRX2; versus (R)-ZINC-3573 (EC80 2 µM), read-out: IC50 versus (R)-ZINC-3573, β-arrestin assay): 11.3 ± 3.1 nM
Ki (MRGPRX2; versus (R)-ZINC-3573 (EC80 2 µM), read-out: Ki versus (R)-ZINC-3573, β-arrestin assay): 5.44 nM
Kb (MRGPRX2; versus (R)-ZINC-3573, read-out: KB value (Schild plot)): 7.59 nM
Kb (MRGPRX2; versus (R)-ZINC-3573, read-out: pKB value (Schild plot) (converted)): 7.41 nM
Ki (MRGPRX2; versus C48/80 (EC80 18 µM), read-out: Ki versus compound 48/80, β-arrestin assay): 3.68 nM
Ki (MRGPRX2; [1]): 6.81 nM
Kb (MRGPRX2; versus CST-14, read-out: pKB value (Schild plot) (converted)): 6.76 nM
mode of action (inhibition type) (MRGPRX2; versus CST-14 and (R)-ZINC-3573): competitive mode of action
selectivity for MRGPRX2 versus other MRGPRX subtypes (MRGPRX2; versus MRGPRX1, -X3, -X4): at least 1000 fold
IC50 (MRGPRX2; versus SP (EC80 3 µM), read-out: IC50 versus substance P, β-arrestin assay): 30.5 ± 6.3 nM
Ki (MRGPRX2; versus SP (EC80 3 µM), read-out: Ki versus substance P, β-arrestin assay): 8.82 nM
IC50 (MRGPRX2; versus clomipramine (EC80 13 µM), read-out: IC50 versus clomipramine, β-arrestin assay): 17.2 ± 0.4 nM
Ki (MRGPRX2; versus clomipramine (EC80 13 µM), read-out: Ki versus clomipramine, β-arrestin assay): 7.04 nM

CCCc1c(C)[nH]c2nc3ccccc3n2c1=O [Compound 1, 2-methyl-3-propylbenzo[4,5]imidazo[1,2-a]pyrimidin-4(1H)-one]
inhibition of MRGPRX1 activation (MRGPRX1): no inhibition
inhibition of MRGPRX3 activation (MRGPRX3): no inhibition
inhibition of MRGPRX4 activation (MRGPRX4): no inhibition
IC50 (MRGPRX2; versus CST-14 (EC80 1.0 µM), read-out: IC50, β-arrestin assay): 2420 ± 220 nM
Ki (MRGPRX2; [1]): 788 ± 143 nM
